Data reported in PMC10038035 (Journal of Enzyme Inhibition and Medicinal Chemistry, 2023).
Read-outs that look alike come from different tables or passages of the source.

Columns and labels:
[1] = biological target: T1, prion protein (recombinant mouse PrP, recPrP) (Mus musculus, UniProt P04925); assay: biochemical
T1 construct: gene Prnp

[2] = biological target: T1, prion protein (recombinant mouse PrP, recPrP); assay: biochemical; remark: listed apart in the source
[3] = biological target: T1, prion protein (recombinant mouse PrP, recPrP); format: biochemical

T1 sequence (P04925 23-231 limits assumed): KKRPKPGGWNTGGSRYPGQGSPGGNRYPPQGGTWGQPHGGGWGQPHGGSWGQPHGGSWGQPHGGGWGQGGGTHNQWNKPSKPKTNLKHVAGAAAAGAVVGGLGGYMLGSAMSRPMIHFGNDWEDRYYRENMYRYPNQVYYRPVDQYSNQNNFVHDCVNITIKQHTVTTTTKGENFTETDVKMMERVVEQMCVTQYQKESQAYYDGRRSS

O=C(NNC(=S)Nc1ccc(Cl)cc1)c1cc2cccc(O)c2cc1O [7x] showed an EC50 [1] of 4.6 µM.

Molecule CCOc1cc(C(=O)NNC(=S)Nc2ccc(Cl)cc2)c(O)c2ccccc12 [7y] has an EC50 [2] of 5 µM.

For Cc1cc(Nc2ccc(NC(=O)c3ccc(Nc4ccnc5ccccc45)cc3)cc2)nc(N)n1 [SGI-1027], the “PrP aggregate formation assay (ThT fluorescence) with purified recPrP, single co” value [3] was “The anti-PrP aggregation activity of 7x and 7y was further compared to that of SGI-1027 (a positive control)”.
